In US7968573B2, “Hydrazide compound and pesticidal use of the same” (Sumitomo Chemical Company, Limited, priority 2008, dated 2011):

Assays:
cotton aphids = test: Test Example 2: spray on cucumber infested with cotton aphids; type: in vivo, Aphis gossypii; conditions: 500 ppm spray solution, 20 ml/cup on cucumber with about 30 cotton aphids; counted six days after spraying
Description: At the same time, cucumber was planted in a polyethylene cup, and was grown until the first true leaf was developed. About 30 cotton aphids were put on the cucumber. One day after, the test spray solution as described above was sprayed in an amount of 20 ml/cup on the cucumber. Six days after spraying, the number of cotton aphids was counted, and a controlling value was calculated by the following equation: Controlling value(%)={1−(Cb×Tai)/(Cai×Tb)}×100 wherein, Cb: the number of insects in a non-treated section before treatment Cai: the number of insects in a non-treated section on observation Tb: the number of insects in a treated-section before treatment Tai: the number of insects in a treated-section on observation. Furthermore, the same way as Test Example 2, test spray solution of the comparative compound of the formula: […]

silver leaf whitefly = test: Test Example 6: spray on cabbage with hatched larvae of silver leaf whitefly; type: in vivo; conditions: Bemisia argentifolii, 168 h; 500 ppm spray solution, 20 ml/cup on cabbage with hatched larvae of silver leaf whitefly; counted seven days after spraying; read-out: Controlling value
Description: At the same time, cabbage was planted in a polyethylene cup, and grown until the first true leaf was developed. All leaves excluding the first true leaf were cut off. On the first true leaf, imagoes of silver leaf whitefly were released and allowed to lay eggs for about 24 hours. The cabbage was retained in a greenhouse for 8 days. When larvae hatched from the laid eggs, the test spray solution as described above was sprayed in an amount of 20 ml/cup to the cabbage. Seven days after spraying, the number of larvae surviving on the cabbage was counted, and a controlling value was calculated by the following equation: Controlling value(%)={1−(Cb×Tai)/(Cai×Tb)}×100 wherein, Cb: the number of worms in a non-treated section before treatment Cai: the number of worms in a non-treated section on observation Tb: the number of worms in a treated-section before treatment Tai: the number of worms in a treated-section on observation.

[1] = system: Frankliniella occidentalis; test: Test Example 5: sprayed cucumber leaf, larvae of Frankliniella occidentalis; type: in vivo; conditions: 168 h; 500 ppm spray solution, 20 ml/cup on cucumber, cut first true leaf; 20 larvae of Frankliniella occidentalis; counted seven days after spraying; read-out: Controlling value
Description: At the same time, cucumber was planted in a polyethylene cup, and was grown until the first true leaf was developed. The test spray solution as described above was sprayed in an amount of 20 ml/cup on the cucumber. After the drug solution sprayed on the cucumber was dried, the first true leaf was cut and then placed on a filter paper (diameter: 70 mm) containing water in a polyethylene cup (diameter: 110 mm). On the cucumber leaf, 20 larvae of Frankliniella occidentalis were released, and the polyethylene cup was capped. Seven days after spraying, the number of insects surviving on the cucumber leaf was counted, and a controlling value was calculated by the following equation: Controlling value(%)={1−(Cb×Tai)/(Cai×Tb)}×100 wherein, Cb: the number of insects in a non-treated section before treatment Cai: the number of insects in a non-treated section on observation Tb: the number of insects in a treated-section before treatment Tai: the number of insects in a treated-section on observation.

Row | SMILES | Controlling value (cotton aphids) | pest or weed control at 500 ppm (silver leaf whitefly) [%] | pest or weed control at 500 ppm [1] [%]
1 | COC(=O)CNC(=O)c1cccc(C)c1NC(=O)c1cc(C(F)(F)F)nn1-c1ncccc1Cl | less than 30% |  | 
2 | COC(=O)NNC(=O)c1cc(Cl)cc(C)c1NC(=O)c1cc(C(F)(F)F)nn1-c1ncccc1Cl [(5)] |  | ≥ 90 | 
3 | Cc1cc(Cl)cc(C(=O)NNC=O)c1NC(=O)c1cc(C(F)(F)F)nn1-c1ncccc1Cl [(17)] |  |  | ≥ 90
4 | CC(=O)NNC(=O)c1cc(Cl)cc(C)c1NC(=O)c1cc(C(F)(F)F)nn1-c1ncccc1Cl [(27)] |  |  | ≥ 90
5 | CSC(=O)NNC(=O)c1cc(Cl)cc(C)c1NC(=O)c1cc(C(F)(F)F)nn1-c1ncccc1Cl [(29)] |  |  | ≥ 90
6 | CCOC(=O)NNC(=O)c1cccc(C)c1NC(=O)c1cc(C(F)(F)F)nn1-c1ncccc1Cl [(32)] |  | ≥ 90 | 
7 | COC(=O)NNC(=O)c1cc(Cl)cc(C)c1NC(=O)c1cc(Br)nn1-c1ncccc1Cl [(34)] |  | ≥ 90 | 
8 | COC(=O)NNC(=O)c1cc(Cl)cc(Cl)c1NC(=O)c1cc(C(F)(F)F)nn1-c1ncccc1Cl [(56)] |  | ≥ 90 | 
9 | COC(=O)NNC(=O)c1cc(Cl)cc(Br)c1NC(=O)c1cc(C(F)(F)F)nn1-c1ncccc1Cl [(59)] |  | ≥ 90 | 
10 | COC(=O)NNC(=O)c1cc(Cl)cc(I)c1NC(=O)c1cc(Br)nn1-c1ncccc1Cl [(79)] |  |  | ≥ 90
11 | COC(=O)NNC(=O)c1cccc(C(F)(F)F)c1NC(=O)c1cc(Br)nn1-c1ncccc1Cl [(81)] |  |  | ≥ 90
12 | COC(=O)NNC(=O)c1ccc(Cl)c(C)c1NC(=O)c1cc(Br)nn1-c1ncccc1Cl [(85)] |  |  | ≥ 90
13 | COC(=O)NNC(=O)c1c(Cl)ccc(C)c1NC(=O)c1cc(Br)nn1-c1ncccc1Cl [(88)] |  |  | ≥ 90
14 | COC(=O)NNC(=O)c1cc(Cl)cc(C)c1NC(=O)c1cc(Br)cn1-c1ncccc1Cl [(93)] |  | ≥ 90 | 
15 | COC(=O)NNC(=O)c1cc(Cl)cc(C)c1NC(=O)c1cc(SC)nn1-c1ncccc1Cl [(99)] |  |  | ≥ 90
16 | COC(=O)N(NC(=O)c1cc(Cl)cc(Br)c1NC(=O)c1cc(Br)nn1-c1ncccc1Cl)C(=O)OC [(107)] |  | ≥ 90 | 
17 | COC(=O)N(C)NC(=O)c1cc(Cl)cc(C)c1NC(=O)c1cc(Br)nn1-c1ncccc1Cl [(114)] |  | ≥ 90 | 
18 | COC(=O)N(C)N(C)C(=O)c1cc(Cl)cc(C)c1NC(=O)c1cc(Br)nn1-c1ncccc1Cl [(119)] |  | ≥ 90 | 
19 | COC(=O)NNC(=O)c1cc(Cl)cc(C)c1NC(=O)c1cc(Br)c(Br)n1-c1ncccc1Cl [(127)] |  | ≥ 90 | 

Row | SMILES | Controlling value (cotton aphids) | pest or weed control at 500 ppm (silver leaf whitefly) [%] | pest or weed control at 500 ppm [1] [%]
20 | COC(=O)NNC(=O)c1cc(Cl)cc(C)c1NC(=O)c1ccc(Cl)n1-c1ncccc1Cl [(129)] |  | ≥ 90 | 
21 | COC(=O)NNC(=O)c1cc2ccccc2c(Br)c1NC(=O)c1cc(Br)nn1-c1ncccc1Cl [(140)] |  |  | ≥ 90
22 | COC(=O)N(C)N(C)C(=O)c1cc(C#N)cc(C)c1NC(=O)c1cc(Br)nn1-c1ncccc1Cl [(144)] |  | ≥ 90 | 
23 | COC(=O)NNC(=O)c1cc(Cl)cc(C)c1NC(=O)c1cc(Cl)cn1-c1ncccc1Cl [(153)] |  | ≥ 90 | 
24 | COC(=O)N(NC(=O)c1cc(Cl)cc(C)c1NC(=O)c1cc(Br)cn1-c1ncccc1Cl)C(=O)OC [(158)] |  | ≥ 90 | 
25 | COC(=O)N(NC(=O)c1cc(Cl)cc(C)c1NC(=O)c1cc(Cl)cn1-c1ncccc1Cl)C(=O)OC [(159)] |  |  | ≥ 90
26 | COC(=O)N(NC(=O)c1cc(Cl)cc(C)c1NC(=O)c1cc(Cl)c(Cl)n1-c1ncccc1Cl)C(=O)OC [(167)] |  |  | ≥ 90
27 | COC(=O)NNC(=O)c1cc([N+](=O)[O-])cc(C)c1NC(=O)c1cc(Br)nn1-c1ncccc1Cl [(183)] |  |  | ≥ 90
28 | COC(=O)NNC(=O)c1cc(Cl)cc(C)c1NC(=O)c1cc(Br)cn1-c1ccncc1Cl [(187)] |  |  | ≥ 90
29 | COC(=O)N(NC(=O)c1cc(Br)cc(Br)c1NC(=O)c1cc(Br)cn1-c1ncccc1Cl)C(=O)OC [(201)] |  | ≥ 90 | 
30 | COC(=O)N(C)N(C)C(=O)c1cc(Br)cc(Br)c1NC(=O)c1cc(Br)nn1-c1ncccc1Cl [(204)] |  | ≥ 90 | 
31 | CN(C)C(=O)NN(C)C(=O)c1cc(Br)cc(Br)c1NC(=O)c1cc(Br)cn1-c1ncccc1Cl [(206)] |  |  | ≥ 90
32 | COC(=O)N(C)NC(=O)c1cc(Br)cc(Br)c1NC(=O)c1cc(Br)cn1-c1ncccc1Cl [(209)] |  | ≥ 90 | 
33 | COCCOC(=O)N(NC(=O)c1cc(Cl)cc(C)c1NC(=O)c1cc(Br)nn1-c1ncccc1Cl)C(=O)OC [(215)] |  | ≥ 90 | 
34 | Cc1cc(Cl)cc(C(=O)NNC(=O)OCCF)c1NC(=O)c1cc(Br)nn1-c1ncccc1Cl [(221)] |  | ≥ 90 | 
35 | C#CCOC(=O)NNC(=O)c1cc(Br)cc(Br)c1NC(=O)c1cc(Br)cn1-c1ncccc1Cl [(223)] |  | ≥ 90 | 
36 | COC(=O)NNC(=O)c1cc(Br)cc(Br)c1NC(=O)c1ccc(S(C)(=O)=O)n1-c1ncccc1Cl [(226)] |  | ≥ 90 | ≥ 90
37 | COC(=O)NNC(=O)c1cc(Br)cc(Br)c1NC(=O)c1ccc(SC)n1-c1ncccc1Cl [(227)] |  |  | ≥ 90
38 | COC(=O)N(C)N(C)C(=O)c1cc(Cl)cc(Cl)c1NC(=O)c1cc(Br)nn1-c1ncccc1Cl [(231)] |  | ≥ 90 | ≥ 90
